From patent publication US12649733B2, “3,6-diamino-pyridazin-3-yl derivatives, pharmaceutical compositions containing them and their uses as pro-apoptotic agents” (LES LABORATOIRES SERVIER, priority 2019, dated 2026)

How the values were obtained:
[1] = tested on: H146 cells; assay: H146 cell viability, MTT assay; assay type: cell-based; conditions: Homo sapiens, NCI-H146, 48 h, 48 h exposure
Experimental: (§1) MTT colorimetric assay is based on the mitochondrial reduction of tetrazolium salt by living cells. The viable cell number is proportional to the production of formazan salts, which can be read spectrophotometrically at 540 nm.
(§2) MOLT-4 and H146 cells were purchased from ATCC and cultivated in RPMI 1640 supplemented with 10% heat inactivated fetal bovine serum, penicillin (100 IU/ml), streptomycin (100 μg/ml) and L-glutamine (2 mM). Cells were cultured at 37° C. in a humidified atmosphere containing 5% CO2. Cells were seeded in 96 microwell plates (150 μL per well) and exposed to the compounds for 48 h (3.16 fold serially diluted; 9 concentrations each, triplicates). At the end of incubation time, 15 μL of MTT solution (5 mg/ml) were added per well and the cells were incubated for another 4 h. Then, 100 μL of 10% Sodium Dodecyl Sulfate (SDS)/HCl 10 mM were added per well and the plate was incubated overnight, before measurement of optical density at 540 nm. IC50s were calculated using standard four-parametric curve fitting.

[2] = biological target: BCLXL (Homo sapiens, UniProt Q07817, V10N/V9A); assay: Fluorescence polarisation assay (PUMA-based probe displacement); assay type: binding; further: 20 nM protein, 10 nM fluorescent probe
Chain of BCLXL (Q07817 with tags, fused parts or gaps V9A/V10N): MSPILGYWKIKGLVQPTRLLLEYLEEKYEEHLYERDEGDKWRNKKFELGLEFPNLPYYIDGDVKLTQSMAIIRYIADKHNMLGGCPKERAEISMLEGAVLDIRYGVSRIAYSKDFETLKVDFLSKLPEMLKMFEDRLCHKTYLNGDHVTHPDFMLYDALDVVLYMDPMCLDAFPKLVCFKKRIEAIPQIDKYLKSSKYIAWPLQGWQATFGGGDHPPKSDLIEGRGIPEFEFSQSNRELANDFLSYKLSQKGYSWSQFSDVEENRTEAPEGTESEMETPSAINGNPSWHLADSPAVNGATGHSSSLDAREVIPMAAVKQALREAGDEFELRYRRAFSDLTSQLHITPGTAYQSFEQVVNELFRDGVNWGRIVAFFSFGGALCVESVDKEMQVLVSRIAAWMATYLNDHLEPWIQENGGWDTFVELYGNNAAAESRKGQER
Experimental: Fluorescence polarization measures the rotation of a fluorescing species in solution, the larger the molecule the more polarized the fluorescence emission.
[[…]] (GST UniProtKB® primary accession number P08515 and BCLXL UniProtKB® primary accession number Q07817-1),
resulting in an increase in anisotropy. If a compound is added which competitively binds to the same site as the probe, thereby releasing it, anisotropy decreases due to the increased amount of free probe.
An 11-point serial dilution of each compound was prepared in DMSO, the final buffer conditions were 10 mM 4-(2-hydroxyethyl)-1-piperazineethanesulfonic acid [HEPES], 150 mM NaCl, 0.05% Tween 20, pH 7.4 and 5% DMSO. The final protein concentration in the assay was 20 nM with the fluorescent probe present at 10 nM. The experiments were incubated for 2 hours at 23° C. before fluorescence polarization was measured on a Biotek SynergyNeo plate reader (Excitation 485 nm, emission 525 nm, parallel and perpendicular reads). […] The KI values were determined from the IC50 values according to Cer et al, Nucleic Acids Res, 2009, Jul. 1: 37(WebServer issue): W441-W445.

[3] = tested on: MOLT-4 cells; assay: MOLT-4 cell viability, MTT assay; assay type: cell-based; conditions: Homo sapiens, MOLT-4, 48 h, 48 h exposure
Experimental: as §1, §2

`Cc1c(Nc2nc(C(=O)O)cs2)nnc(Nc2nc3ccccc3s2)c1C` [Example 1] was tested. Which IC50 [1] did it give?
Its IC50 is 15000 nM.

`O=C(O)c1csc(Nc2ccc(Nc3nc4ccccc4s3)nn2)n1` [Example 4, 2-({6-[(1,3-Benzothiazol-2-yl)amino]pyridazin-3-yl}amino)-1,3-thiazole-4-carboxylic acid] was tested. Which Ki [2] did it give?
Its Ki is 910 nM.

`Cc1cc(Nc2nc(C(=O)O)cs2)nnc1Nc1nc2ccccc2s1` [Example 7, 2-({6-[(1,3-Benzothiazol-2-yl)amino]-5-methylpyridazin-3-yl}amino)-1,3-thiazole-4-carboxylic acid] was tested. Which IC50 [1] did it give?
Its IC50 is greater than 15000 nM.

Which Ki [2] does the source give for `Cc1cc(Nc2nc3ccccc3s2)nnc1Nc1nc(C(=O)O)cs1` [Example 11, 2-({6-[(1,3-Benzothiazol-2-yl)amino]-4-methylpyridazin-3-yl}amino)-1,3-thiazole-4-carboxylic acid] here?
Its Ki is 600 nM.

Which IC50 [1] does the source give for `O=C(O)c1csc(Nc2nnc(Nc3nc4ccccc4s3)c3c2CCCC3)n1` [Example 17, 2-[[4-(1,3-Benzothiazol-2-ylamino)-5,6,7,8-tetrahydrophthalazin-1-yl]amino]thiazole-4-carboxylic acid] here?
The IC50 was 13400 nM.

And the IC50 [3]?
The IC50 was 7880 nM.

What does the source list for `Cc1c(Nc2nc(C(=O)O)cs2)nnc(Nc2nc3ccccc3s2)c1C1CC1` [Example 20, 2-({6-[(1,3-Benzothiazol-2-yl)amino]-5-cyclopropyl-4-methylpyridazin-3-yl}amino)-1,3-thiazole-4-carboxylic acid]?
IC50 [1]: 3350 nM; IC50 [3]: 7210 nM

With `Cc1cc(N(C)c2nc(C(=O)O)cs2)nnc1Nc1nc2ccccc2s1` [Example 21, 2-({6-[(1,3-Benzothiazol-2-yl)amino]-5-methylpyridazin-3-yl}(methyl)amino)-1,3-thiazole-4-carboxylic acid] as the compound, how does the IC50 [1] read?
Its IC50 is 9580 nM.

How did the IC50 [1] turn out when `Cc1c(Nc2nc3ccccc3s2)nnc(N(C)c2nc(C(=O)O)cs2)c1C` [Example 26, 2-({6-[(1,3-Benzothiazol-2-yl)amino]-4,5-dimethylpyridazin-3-yl}(methyl)amino)-1,3-thiazole-4-carboxylic acid] was run?
The IC50 was greater than 15000 nM.

And the IC50 [3]?
Its IC50 is greater than 15000 nM.

For `COCc1c(Nc2nc(C(=O)O)cs2)nnc(Nc2nc3ccccc3s2)c1C` [Example 29, 2-({6-[(1,3-Benzothiazol-2-yl)amino]-4-(methoxymethyl)-5-methylpyridazin-3-yl}amino)-1,3-thiazole-4-carboxylic acid], which IC50 [1] is on record?
The IC50 was greater than 15000 nM.

And the IC50 [3]?
Its IC50 is greater than 15000 nM.

Which Ki [2] does the source give for `COCCCC1(Cn2ncc(-c3sc(N(C)c4cc(C)c(Nc5nc6ccccc6s5)nn4)nc3C(=O)O)c2C)CCCCCCC1` [Example 43, 2-({6-[(1,3-Benzothiazol-2-yl)amino]-5-methylpyridazin-3-yl}(methyl)amino)-5-(1-{[1-(3-methoxypropyl)cyclooctyl]methyl}-5-methyl-1H-pyrazol-4-yl)-1,3-thiazole-4-carboxylic acid] here?
Its Ki is 19 nM.

For `Cc1c(Nc2nc(C(=O)O)cs2)nnc(Nc2nc3c(C)cccc3s2)c1C` [Example 48, 2-[[4,5-dimethyl-6-[(4-methyl-1,3-benzothiazol-2-yl)amino]pyridazin-3-yl]amino]thiazole-4-carboxylic acid], which Ki [2] is on record?
The Ki was 1900 nM.

How did the IC50 [1] turn out when `Cc1c(Nc2nc3ccccc3s2)nnc(Nc2nc(C(=O)O)cs2)c1CCCN1CCN(C)CC1` [Example 51, 2-({6-[(1,3-Benzothiazol-2-yl)amino]-5-methyl-4-[3-(4-methylpiperazin-1-yl)propyl]pyridazin-3-yl}amino)-1,3-thiazole-4-carboxylic acid] was run?
Its IC50 is greater than 15000 nM.

What about the IC50 [3] of the same compound?
The IC50 was greater than 15000 nM.

Which Ki [2] does the source give for `Cc1c(Nc2nc(C(=O)O)cs2)nnc(Nc2nc3c(F)cccc3s2)c1C` [Example 55, 2-[[6-[(4-Fluoro-1,3-benzothiazol-2-yl)amino]-4,5-dimethyl-pyridazin-3-yl]amino]thiazole-4-carboxylic acid] here?
Its Ki is 82 nM.

For `Cc1cc(N(C)c2nc(C(=O)O)c(N3CC(O)C3)s2)nnc1Nc1nc2ccccc2s1` [Example 72, 2-({6-[(1,3-Benzothiazol-2-yl)amino]-5-methylpyridazin-3-yl}(methyl)amino)-5-(3-hydroxyazetidin-1-yl)-1,3-thiazole-4-carboxylic acid], which Ki [2] is on record?
Its Ki is 160 nM.

With `Cc1cc(N(C)c2nc(C(=O)O)c(N3CC[C@@H](Oc4ccccc4)C3)s2)nnc1Nc1nc2ccccc2s1` [Example 79, 2-({6-[(1,3-Benzothiazol-2-yl)amino]-5-methylpyridazin-3-yl}(methyl)amino)-5-[(3R)-3-phenoxypyrrolidin-1-yl]-1,3-thiazole-4-carboxylic acid] as the compound, how does the Ki [2] read?
The Ki was 92 nM.

`Cc1cc(N(C)c2nc(C(=O)O)c(N3CCCCC3)s2)nnc1Nc1nc2ccccc2s1` [Example 80, 2-({6-[(1,3-Benzothiazol-2-yl)amino]-5-methylpyridazin-3-yl}(methyl)amino)-5-(piperidin-1-yl)-1,3-thiazole-4-carboxylic acid] was tested. Which Ki [2] did it give?
The Ki was 80 nM.

How did the Ki [2] turn out when `Cc1cc(N(C)c2nc(C(=O)O)c(N3CCC(Oc4ccccc4)CC3)s2)nnc1Nc1nc2ccccc2s1` [Example 81, 2-({6-[(1,3-Benzothiazol-2-yl)amino]-5-methylpyridazin-3-yl}(methyl)amino)-5-(4-phenoxypiperidin-1-yl)-1,3-thiazole-4-carboxylic acid] was run?
Its Ki is 16 nM.

With `Cc1cc(N(C)c2nc(C(=O)O)c(C3CCN(C)CC3)s2)nnc1Nc1nc2ccccc2s1` [Example 99, 2-({6-[(1,3-Benzothiazol-2-yl)amino]-5-methylpyridazin-3-yl}(methyl)amino)-5-(1-methylpiperidin-4-yl)-1,3-thiazole-4-carboxylic acid] as the compound, how does the Ki [2] read?
The Ki was 2400 nM.

For `Cc1cc(N(CC(O)CO)c2nc(C(=O)O)cs2)nnc1Nc1nc2ccccc2s1` (centres unmarked) [Example 103, 2-[[6-(1,3-Benzothiazol-2-ylamino)-5-methyl-pyridazin-3-yl]-(2,3-dihydroxypropyl)amino]thiazole-4-carboxylic acid], which Ki [2] is on record?
The Ki was 14 nM.

With `Cc1cc(N(CCCC(O)CO)c2nc(C(=O)O)cs2)nnc1Nc1nc2ccccc2s1` (centres unmarked) [Example 104, 2-[[6-(1,3-Benzothiazol-2-ylamino)-5-methyl-pyridazin-3-yl]-(4,5-dihydroxypentyl)amino]thiazole-4-carboxylic acid] as the compound, how does the Ki [2] read?
The Ki was 16 nM.

How did the Ki [2] turn out when `Cc1cc(N(CC(CO)N2CCOCC2)c2nc(C(=O)O)cs2)nnc1Nc1nc2ccccc2s1` (centres unmarked) [Example 107, 2-[[6-(1,3-Benzothiazol-2-ylamino)-5-methyl-pyridazin-3-yl]-(3-hydroxy-2-morpholino-propyl)amino]thiazole-4-carboxylic acid] was run?
Its Ki is 130 nM.

With `Cc1cc(N(C)c2nc(C(=O)O)c(C3CN(S(C)(=O)=O)C3)s2)nnc1Nc1nc2ccccc2s1` [Example 149, 2-({6-[(1,3-Benzothiazol-2-yl)amino]-5-methylpyridazin-3-yl}(methyl)amino)-5-(1-methanesulfonylazetidin-3-yl)-1,3-thiazole-4-carboxylic acid] as the compound, how does the Ki [2] read?
Its Ki is 1300 nM.

For `CNCC#Cc1ccc(OCCCc2sc(N(CCCC(O)CN(C)CCP(=O)(O)O)c3cc(C)c(Nc4nc5ccccc5s4)nn3)nc2C(=O)O)c(F)c1` (centres unmarked) [Example 196, 2-[[6-(1,3-Benzothiazol-2-ylamino)-5-methyl-pyridazin-3-yl]-[4-hydroxy-5-[methyl(2-phosphonoethyl)amino]pentyl]amino]-5-[3-[2-fluoro-4-[3-(methylamino)prop-1-ynyl]phenoxy]propyl]thiazole-4-carboxylic acid], which IC50 [1] is on record?
Its IC50 is 1620 nM.

What about the IC50 [3] of the same compound?
Its IC50 is 879 nM.

How did the IC50 [1] turn out when `CNCC#Cc1ccc(OCCCc2sc(N(CCC[N+](C)(C)C)c3cc(C)c(Nc4nc5ccccc5s4)nn3)nc2C(=O)[O-])c(F)c1` [Example 202, 2-[[6-(1,3-Benzothiazol-2-ylamino)-5-methyl-pyridazin-3-yl]-[3-(trimethylammonio)propyl]amino]-5-[3-[2-fluoro-4-[3-(methylamino)prop-1-ynyl]phenoxy]propyl]thiazole-4-carboxylate] was run?
The IC50 was 74.8 nM.

And the IC50 [3]?
The IC50 was 611 nM.

With `CNCC#Cc1ccc(OCCCc2sc(N(CCCCN(C)C)c3cc(C)c(Nc4nc5ccccc5s4)nn3)nc2C(=O)O)c(F)c1` [Example 210, 2-[[6-(1,3-Benzothiazol-2-ylamino)-5-methyl-pyridazin-3-yl]-[4-(dimethylamino)butyl]amino]-5-[3-[2-fluoro-4-[3-(methylamino)prop-1-ynyl]phenoxy]propyl]thiazole-4-carboxylic acid] as the compound, how does the IC50 [1] read?
The IC50 was 21.4 nM.

And the IC50 [3]?
The IC50 was 20.3 nM.

With `CNCC#Cc1ccc(OCCCc2sc(N(CCCCC[N+](C)(C)C)c3cc(C)c(Nc4nc5ccccc5s4)nn3)nc2C(=O)O)c(F)c1` [Example 219, 2-[[6-(1,3-Benzothiazol-2-ylamino)-5-methyl-pyridazin-3-yl]-[5-(trimethylammonio)pentyl]amino]-5-[3-[2-fluoro-4-[3-(methylamino)prop-1-ynyl]phenoxy]propyl]thiazole-4-carboxylate] as the compound, how does the IC50 [1] read?
The IC50 was 129 nM.

And the IC50 [3]?
The IC50 was 1270 nM.
